Columns and labels:
[1] = system: metastatic pancreatic cancer; assay: Phase 2 clinical study, efficacy (RECIST 1.1, TTP, PFS, OS)
Description: Eligible patients (aged ≥18 y) were relapsed/refractory to standard treatment and met inclusion/exclusion criteria. […] Each received either two 72-hr infusions of 110 mg/kg IV Coenzyme Q10 alone (Monotherapy) or in combination with gemcitabine (Combination Therapy), per week. Tumor response was evaluated at week 10 and then every 8 weeks. Clinical assessments included investigator observations and patient reports. This study occurred in two parts: Part 1 of the study enrolled ten (10) patients in the Coenzyme Q10 (monotherapy arm) and ten (10) patients in the Coenzyme Q10 plus gemcitabine (combination therapy arm) with intent to enroll the additional 15 patients (Part 2) into the applicable treatment arm(s) based on RECIST v1.1 clinical response.
Patients with no prior gemcitabine treatments prior to screening for the study, or prior gemcitabine treatment >3 months prior to screening for the study were assigned to the combination therapy group. Patients with prior gemcitabine discontinued due to toxicity in prior treatment, patients unable to tolerate a dose of 800 mg/m^2 weekly at any point due to toxicity, and patients with prior gemcitabine treatment ≤3 months prior to screening for the study were assigned to the monotherapy group.
(§2) A Coenzyme Q10 Nanosuspension Injection (40 mg/mL) was administered IV over 144 hours. Each patient received 2 consecutive 72-hour infusions per week. Monotherapy arm patients received a Coenzyme Q10 dose of 110 mg/Kg only weekly. Patients in the combination therapy arm received a Coenzyme Q10 dose of 110 mg/Kg and gemcitabine IV once weekly (starting at week 3) at a starting dose of 1000 mg/m^2.
The primary objective of the study was to evaluate the Overall Response Rate (ORR) in patients treated with the combination of Coenzyme Q10 with gemcitabine or Coenzyme Q10 as a monotherapy. The secondary objectives were to evaluate Overall Survival (OS), Progression-Free Survival (PFS) overall and at around 10 weeks (equal to 2 cycles of treatment), Time to Progression (TTP), Tumor Response using Adaptive Molecular Responses (multi-omic molecular profiling), the toxicity profile of Coenzyme Q10 with gemcitabine and as monotherapy when given over 144-hour intravenous (IV) infusion in patients with advanced pancreatic cancer, changes in carbohydrate antigen (CA) 19-9 levels, and patient reported Quality of Life (QOL) using the validated FACT-HEP PRO.
The study described above in Example 1 was continued and additional patients were evaluated.

[2] = Phase I clinical trial; monotherapy and in combination with gemcitabine; IV
Description: (§1) The composition comprising Coenzyme Q10 evaluated in this study is a ubidecarenone containing intravenous (IV) nanodispersion that switches cancer energy generation from glycolysis to mitochondrial oxidative phosphorylation to elicit an anticancer effect.

[3] = Phase 2 clinical study, adverse events / toxicity profile; settings: for Patients with an AE: safety population (31 patients), % of all 31
Description: Eligible patients (aged ≥18 y) were relapsed/refractory to standard treatment and met inclusion/exclusion criteria. […] Each received either two 72-hr infusions of 110 mg/kg IV Coenzyme Q10 alone (Monotherapy) or in combination with gemcitabine (Combination Therapy), per week. Tumor response was evaluated at week 10 and then every 8 weeks. Clinical assessments included investigator observations and patient reports.
as §2

pancreatic models = assay: Preclinical in vivo pancreatic models, survival; settings: IV administration, alone and in combination with gemcitabine
Description: as §1

[4] = Example 1, overall current population
[5] = Example 1, preliminary, both arms
[6] = treatment-emergent, safety population

Question: For COC1=C(OC)C(=O)C(C/C=C(\C)CC/C=C(\C)CC/C=C(\C)CC/C=C(\C)CC/C=C(\C)CC/C=C(\C)CC/C=C(\C)CC/C=C(\C)CC/C=C(\C)CCC=C(C)C)=C(C)C1=O [Coenzyme Q10], which mean overall survival [1, 4] is on record?
Answer: 125 days

Question: What about the “mean time to progression (TTP)” value [1, 4] of the same compound?
Answer: 68 days

Question: What about the median overall survival [1, 4] of the same compound?
Answer: 108 days

Question: What about the “median time to progression (TTP)” value [1, 4] of the same compound?
Answer: 53 days

Question: What about the “patients with SD <4 months” value [1, 5] of the same compound?
Answer: 4

Question: And the “patients with SD >4 months” value [1, 5]?
Answer: 3

Question: What about the “stable disease (SD) noted, number of patients by arm” value ([1]; Example 1, preliminary, of 13 evaluable patients) of the same compound?
Answer: 1

Question: What about the “stable disease (SD) noted, number of patients” value ([1]; Example 1, preliminary, of 13 evaluable patients, both arms) of the same compound?
Answer: 7

Question: What about the “best ORR of stable disease (SD), share of ATC population” value ([1]; Example 2, adequately treated cohort, n=9/18, with gemcitabine) of the same compound?
Answer: 50%

Question: And the “median Progression-Free Survival (PFS)” value ([1]; Example 2, with gemcitabine, 95% CI 70-131, FIG. 4)?
Answer: 118 days

Question: What about the “median time to progression (TTP)” value ([1]; Example 2, with gemcitabine, 95% CI 70-147, FIG. 3) of the same compound?
Answer: 121 days

Question: And the “median Overall Survival (OS)” value ([1]; Example 2, with gemcitabine, 95% CI 131-228, FIG. 5)?
Answer: 218 days

Question: And the “correlation of time of Coenzyme Q10 exposure with time to progression” value ([1]; FIG. 1, monotherapy or combination therapy)?
Answer: positively correlated

Question: And the “correlation of time of Coenzyme Q10 exposure with overall survival” value ([1]; FIG. 2, monotherapy or combination therapy)?
Answer: positively correlated

Question: And the “Discontinuation from the study: Disease Progression” value ([1]; Overall to Date (N = 47))?
Answer: 12 (25.5) N (%)

Question: What about the MTD [2] of the same compound?
Answer: 110 mg/kg

Question: What about the “patients who experienced at least 1 AE” value ([3]; Example 1) of the same compound?
Answer: All

Question: And the “INR increase, frequency of AE” value ([3]; Example 1, 31 treated patients)?
Answer: 48.4%

Question: What about the “abdominal pain, frequency of AE” value ([3]; Example 1, 31 treated patients) of the same compound?
Answer: 35.5%

Question: And the “fatigue, frequency of AE” value ([3]; Example 1, 31 treated patients)?
Answer: 38/7

Question: And the “thrombocytopenia, frequency of AE” value ([3]; Example 1, 31 treated patients)?
Answer: 35.5%

Question: What about the tolerability ([3]; Example 1, Phase 2) of the same compound?
Answer: well-tolerated

Question: What about the “AEs considered definitely related to study drug” value ([3]; Example 1, number of AEs) of the same compound?
Answer: 10

Question: What about the “AEs considered possibly related to study drug” value ([3]; Example 1, number of AEs) of the same compound?
Answer: 19

Question: And the “AEs considered probably related to study drug” value ([3]; Example 1, number of AEs)?
Answer: 14

Question: And the “most common AE's” value ([3]; Example 2)?
Answer: GI related

Question: What about the tolerability ([3]; Example 2) of the same compound?
Answer: well tolerated

Question: And the “Number of AEs” value [3, 6]?
Answer: 347

Question: And the “Subjects with any AE leading to study drug discontinuation” value [3, 6]?
Answer: 4 (12.9) N (%)

Question: And the “Subjects with any Infusion reactions” value [3, 6]?
Answer: 0 N (%)

Question: And the “Subjects with any Serious AE” value [3, 6]?
Answer: 12 (38.7) N (%)

Question: And the “Subjects with any ≥Grade 3 AE” value [3, 6]?
Answer: 31 (100) N (%)

Question: And the “Patients with an AE” value ([3]; treatment-emergent, listed as Coenzyme Q10-IV)?
Answer: 31 (100) N (%)

Question: And the “Patients with an AE” value ([3]; treatment-emergent, listed as Mono)?
Answer: 13 (41.9) N (%)

Question: What about the “duration of survival outcomes” value (pancreatic models) of the same compound?
Answer: significantly improved
